In ChEMBL document CHEMBL1123275, “Synthesis and renal vasodilator activity of some dopamine agonist 1-aryl-2,3,4,5-tetrahydro-1H-3-benzazepine-7,8-diols: halogen and methyl analogues of fenoldopam” (J Med Chem, 1986):
Calls of active or inactive are those of the source. No cut-off for these calls is given here.

Assays:
Canis familiaris [1] = species: Canis familiaris; assay: Effective dose against Iliac vascular resistance (IVR); format: functional; conditions: Canis lupus familiaris
Canis familiaris [2] = assay: Renal vasodilator activity was determined in anesthetized dogs; format: functional; conditions: Canis lupus familiaris
Rattus norvegicus [3] = assay: Compound was tested for its CNS activity in vivo by determining drug-induced rotation in rats with 6-hydroxydopamine induced lesions of the SNx rats after ip administration measured as dose-turns; 10-no significant activity; format: functional, organism-based; conditions: Central nervous system
Canis familiaris [4] = species: Canis familiaris; assay: Maximum percent decrease in renal vascular resistance.; format: functional, Canis lupus familiaris
Canis familiaris [5] = assay: cardiovascular activity was determined in anesthetized dogs.(Mean arterial blood pressure); format: functional; conditions: Canis lupus familiaris
Canis familiaris [6] = assay: cardiovascular activity was determined in anesthetized dogs.(Heart rate ); format: functional; conditions: Canis lupus familiaris
Rattus norvegicus [7] = species: Rattus norvegicus; assay: In vitro dose stimulating D-1 adenylate cyclase in rat caudate nuclei; format: functional, organism-based
Rattus norvegicus [8] = assay: Compound was tested for its CNS activity in vivo in SNx rats with 6-hydroxydopamine induced lesions after ip administration; format: functional, Central nervous system
Canis familiaris [9] = assay: Cardiovascular activity was determined in anesthetized dogs.(Mean arterial blood pressure); format: functional; conditions: Canis lupus familiaris, Artery
Rattus norvegicus [10] = assay: Compound was tested for its CNS activity in vivo in SNx rats with 6-hydroxydopamine induced lesions after ic administration; format: functional, Central nervous system
Rattus norvegicus [11] = species: Rattus norvegicus; assay: (§1) In vitro dose stimulating D-1 adenylate cyclase in rat caudate nuclei; No significant activity at 10 uM; format: functional
Rattus norvegicus [12] = species: Rattus norvegicus; assay: In vitro inhibition of dopamine stimulated production of [14C]cAMP from [14C]-ATP in homogenates of rat caudate; No significant activity at 10 uM; format: functional
Rattus norvegicus [13] = species: Rattus norvegicus; assay: In vitro dose stimulating D-1 adenylate cyclase in rat caudate nuclei at 10 uM; format: functional
Rattus norvegicus [14] = species: Rattus norvegicus; assay: In vitro inhibition of dopamine stimulated production of [14C]-cAMP from [14C]-ATP in homogenates of rat caudate; format: functional
Canis familiaris [15] = assay: Renal vasodilator activity in anesthetized dogs; no significant activity at 1000 ug/kg/stat; format: functional, organism-based; conditions: Canis lupus familiaris
Rattus norvegicus [16] = species: Rattus norvegicus; assay: as §1; format: functional; remark: listed apart in the source
Rattus norvegicus [17] = species: Rattus norvegicus; assay: In vitro inhibition of dopamine stimulated production of [14C]cAMP from [14C]-ATP in homogenates of rat caudate at the concentration of 10 uM; format: functional
Rattus norvegicus [18] = species: Rattus norvegicus; assay: In vitro dose stimulating D-1 adenylate cyclase in rat caudate nuclei as % dopamine response at 10 uM; format: functional
Canis familiaris [19] = assay: Renal vasodilator activity in anesthetized dogs; I= no significant activity at 300 ug/kg/min; format: functional, organism-based; conditions: Canis lupus familiaris
Rattus norvegicus [20] = assay: Compound was tested for its CNS activity in vivo in SNx rats with 6-hydroxydopamine induced lesions after ip administration measured as dose-turns; 10-No significant activity; format: functional, organism-based; conditions: Central nervous system
Rattus norvegicus [21] = species: Rattus norvegicus; assay: In vitro inhibition of dopamine stimulated production of [14C]cAMP from [14C]-ATP in homogenates of rat caudate at the concentration of 1 uM; format: functional
Canis familiaris [22] = assay: Cardiovascular activity was determined in anesthetized dogs.(Heart rate ); format: functional; conditions: Canis lupus familiaris

In the case of `Br.Oc1cccc(C2CNCCc3c2cc(O)c(O)c3Cl)c1` (stereo unspecified), the ED30 (Canis familiaris [1]) is reported as 0.0119 mg/kg, the ED15 (Canis familiaris [2]) is reported as 0.00035 mg/kg and the RD500 (Rattus norvegicus [3]) is reported as “inactive”. For the same compound, the Decrease (Canis familiaris [4]) was 49%, the ED20 (Canis familiaris [5]) was 2.12 mg/kg and the ED20 (Canis familiaris [6]) was 0.36 mg/kg.
Compound `Br.Cc1c(O)c(O)cc2c1CCNCC2c1ccccc1` (stereo unspecified) has an EC50 (Rattus norvegicus [7]) of 0.1 µM and an RD500 (Rattus norvegicus [8]) of 1.28 mg/kg.
In the case of `NCCc1ccc(O)c(O)c1` [DOPAMINE], the ED30 (Canis familiaris [1]) is reported as 0.151 mg/kg, the ED15 (Canis familiaris [2]) is reported as 0.0035 mg/kg and the Decrease (Canis familiaris [4]) is reported as 43%. The ED20 (Canis familiaris [9]) was 0.378 mg/kg, the RD500 (Rattus norvegicus [10]) was 0.1 ug rat-1 and the ED20 (Canis familiaris [6]) was 0.378 mg/kg.
`Br.Oc1ccc(C2CNCCc3cc(O)c(O)c(Cl)c32)cc1` (stereo unspecified) was tested, and the EC50 (Rattus norvegicus [11]) was “Not Active” and the inhibition (Rattus norvegicus [12]) was “inactive”.
`CN1CCc2cc(O)c(O)cc2C(c2ccccc2)C1.Cl` (stereo unspecified) showed an RD500 (Rattus norvegicus [8]) of 0.1 mg/kg, a Stimulation (Rattus norvegicus [13]) of 20% and an IC50 (Rattus norvegicus [14]) of 0.63 µM. For the same compound, the Activity (Canis familiaris [15]) was “inactive” and the RD500 (Rattus norvegicus [10]) was 0.06 ug rat-1.
`Cc1c(O)c(O)c(C)c2c1CCNCC2c1ccc(O)cc1` (stereo unspecified) was tested, and the inhibition (Rattus norvegicus [12]) was “inactive” and the Stimulation (Rattus norvegicus [16]) was “inactive”.
Work on `Br.Oc1ccc(C2CNCCc3c2cc(O)c(O)c3F)cc1` (stereo unspecified) yielded an ED30 (Canis familiaris [1]) of 6.06 mg/kg, an EC50 (Rattus norvegicus [7]) of 0.2 µM and an ED15 (Canis familiaris [2]) of 0.00083 mg/kg. It also gave a Decrease (Canis familiaris [4]) of 28%, an ED20 (Canis familiaris [5]) of 6.06 mg/kg and an ED20 (Canis familiaris [6]) of 0.00581 mg/kg.
In the case of `Cc1c(O)c(O)c(Cl)c2c1C(c1ccc(O)cc1)CNCC2` (stereo unspecified), the inhibition (Rattus norvegicus [12]) is reported as “inactive” and the Stimulation (Rattus norvegicus [16]) is reported as “inactive”.
Work on `Cc1c(O)c(O)c(Cl)c2c1CCNCC2c1ccc(O)cc1.Cl` (stereo unspecified) yielded an ED30 (Canis familiaris [1]) of 6.09 mg/kg, an ED15 (Canis familiaris [2]) of 0.03 mg/kg and a Decrease (Canis familiaris [4]) of 42%. For the same compound, the inhibition (Rattus norvegicus [17]) was 29%, the Stimulation (Rattus norvegicus [16]) was “inactive” and the ED20 (Canis familiaris [5]) was 6.09 mg/kg. The ED20 (Canis familiaris [6]) was 6.09 mg/kg.
`CN1CCc2c(cc(O)c(O)c2Cl)C(c2ccccc2)C1.Cl` (stereo unspecified) showed an RD500 (Rattus norvegicus [8]) of 0.03 mg/kg, a Stimulation (Rattus norvegicus [13]) of 30% and an IC50 (Rattus norvegicus [14]) of 0.6 µM.
Compound `CS(=O)(=O)O.Cc1c(O)c(O)cc2c1CCNCC2c1ccc(O)cc1` (stereo unspecified) has an ED30 (Canis familiaris [1]) of 6.06 mg/kg, an ED15 (Canis familiaris [2]) of 0.0028 mg/kg and a Decrease (Canis familiaris [4]) of 41%. The inhibition (Rattus norvegicus [17]) was 50%, the Stimulation (Rattus norvegicus [13]) was 30% and the ED20 (Canis familiaris [5]) was 6.06 mg/kg. For the same compound, the ED20 (Canis familiaris [6]) was 6.06 mg/kg.
With `Br.Cc1c(O)c(O)cc2c1C(c1ccc(O)cc1)CNCC2` (stereo unspecified) the EC50 (Rattus norvegicus [11]) was “Not Active” and the inhibition (Rattus norvegicus [12]) was “inactive”.
`Br.Oc1cc2c(c(Cl)c1O)CCNCC2c1ccccc1` (stereo unspecified) showed an ED30 (Canis familiaris [1]) of 2.92 mg/kg, an ED15 (Canis familiaris [2]) of 0.0035 mg/kg and a Decrease (Canis familiaris [4]) of 39%. It also gave an RD500 (Rattus norvegicus [8]) of 0.3 mg/kg, an ED20 (Canis familiaris [5]) of 6.07 mg/kg and an RD500 (Rattus norvegicus [10]) of 0.22 ug rat-1. For the same compound, the ED20 (Canis familiaris [6]) was 0.378 mg/kg.
`Br.Oc1ccc(C2CNCCc3c2cc(O)c(O)c3Br)cc1` (stereo unspecified) showed an ED30 (Canis familiaris [1]) of 0.07 mg/kg, an EC50 (Rattus norvegicus [7]) of 0.15 µM and an ED15 (Canis familiaris [2]) of 0.005 mg/kg. The RD500 (Rattus norvegicus [3]) was “inactive”, the Decrease (Canis familiaris [4]) was 56% and the ED20 (Canis familiaris [5]) was 30.4 mg/kg. For the same compound, the ED20 (Canis familiaris [6]) was 30.4 mg/kg.
`Br.Oc1ccc(C2CNCCc3c2cc(O)c(O)c3I)cc1` (stereo unspecified) was tested, and the ED30 (Canis familiaris [1]) was 6.06 mg/kg, the ED15 (Canis familiaris [2]) was 0.0042 mg/kg and the Decrease (Canis familiaris [4]) was 41%. For the same compound, the inhibition (Rattus norvegicus [17]) was 55%, the Stimulation (Rattus norvegicus [18]) was 36% and the ED20 (Canis familiaris [5]) was 6.06 mg/kg. It also gave an ED20 (Canis familiaris [6]) of 6.06 mg/kg.
For `Cl.Oc1ccc(C2CNCCc3c(Cl)c(O)c(O)c(Cl)c32)cc1` (stereo unspecified), the ED30 (Canis familiaris [1]) was 6.2 mg/kg, the EC50 (Rattus norvegicus [7]) was 2.6 µM and the ED15 (Canis familiaris [2]) was 0.62 mg/kg. The RD500 (Rattus norvegicus [3]) was “inactive”, the Decrease (Canis familiaris [4]) was 41% and the ED20 (Canis familiaris [5]) was 6.2 mg/kg. It also gave an ED20 (Canis familiaris [6]) of 6.2 mg/kg.
With `Cl.Oc1c(O)c(Cl)c2c(c1Cl)CCNCC2c1ccccc1` (stereo unspecified) the ED30 (Canis familiaris [1]) was 6.08 mg/kg, the EC50 (Rattus norvegicus [7]) was 1.25 µM and the inhibition (Rattus norvegicus [12]) was “inactive”. The ED15 (Canis familiaris [2]) was 0.01 mg/kg, the Decrease (Canis familiaris [4]) was 59% and the ED20 (Canis familiaris [5]) was 6.08 mg/kg. For the same compound, the ED20 (Canis familiaris [6]) was 6.08 mg/kg.
`CN1CCc2c(cc(O)c(O)c2Cl)C(c2ccc(O)cc2)C1` (stereo unspecified) showed an EC50 (Rattus norvegicus [7]) of 22 µM and an IC50 (Rattus norvegicus [14]) of 1.4 µM.
`Br.Cc1c(O)c(O)cc2c1CCN(C)CC2c1ccccc1` (stereo unspecified) was tested, and the RD500 (Rattus norvegicus [8]) was 0.05 mg/kg, the Activity (Canis familiaris [19]) was “inactive” and the Stimulation (Rattus norvegicus [13]) was 20%. The IC50 (Rattus norvegicus [14]) was 0.44 µM.
In the case of `Br.Oc1ccc(C2CNCCc3c(F)c(O)c(O)c(F)c32)cc1` (stereo unspecified), the EC50 (Rattus norvegicus [11]) is reported as “Not Active” and the inhibition (Rattus norvegicus [12]) is reported as “inactive”.
With `CS(=O)(=O)O.Oc1ccc(C2CNCCc3c2cc(O)c(O)c3Cl)cc1` (stereo unspecified) [FENOLDOPAM MESYLATE] the ED30 (Canis familiaris [1]) was 1.82 mg/kg, the EC50 (Rattus norvegicus [7]) was 0.048 µM and the ED15 (Canis familiaris [2]) was 0.0003 mg/kg. The RD500 (Rattus norvegicus [3]) was “inactive”, the Decrease (Canis familiaris [4]) was 59% and the RD500 (Rattus norvegicus [8]) was 0.5 ug rat-1. For the same compound, the ED20 (Canis familiaris [5]) was 1.82 mg/kg and the ED20 (Canis familiaris [6]) was 1.82 mg/kg.
With `Oc1ccc(C2CNCCc3cc(O)c(O)cc32)cc1` (stereo unspecified) the EC50 (Rattus norvegicus [7]) was 0.2 µM and the RD500 (Rattus norvegicus [20]) was “inactive”.
With `Br.CN1CCc2c(cc(O)c(O)c2F)C(c2ccc(O)cc2)C1` (stereo unspecified) the inhibition (Rattus norvegicus [17]) was 55% and the Stimulation (Rattus norvegicus [13]) was 36%.
`Br.CN1CCc2c(cc(O)c(O)c2Br)C(c2ccccc2)C1` (stereo unspecified) showed an RD500 (Rattus norvegicus [8]) of 0.015 mg/kg, a Stimulation (Rattus norvegicus [13]) of 30% and an IC50 (Rattus norvegicus [14]) of 0.32 µM.
With `Br.Oc1cc2c(c(Br)c1O)CCNCC2c1ccccc1` (stereo unspecified) the ED30 (Canis familiaris [1]) was 6.08 mg/kg, the EC50 (Rattus norvegicus [7]) was 0.1 µM and the ED15 (Canis familiaris [2]) was 0.009 mg/kg. The Decrease (Canis familiaris [4]) was 42%, the RD500 (Rattus norvegicus [8]) was 0.34 mg/kg and the ED20 (Canis familiaris [5]) was 6.08 mg/kg. It also gave an ED20 (Canis familiaris [6]) of 6.08 mg/kg.
`Oc1cc2c(cc1O)C(c1ccccc1)CNCC2` (stereo unspecified) [SKF-38393] was tested, and the ED30 (Canis familiaris [1]) was 0.735 mg/kg, the ED15 (Canis familiaris [2]) was 0.035 mg/kg and the Decrease (Canis familiaris [4]) was 18%. The RD500 (Rattus norvegicus [8]) was 0.7 mg/kg, the ED20 (Canis familiaris [5]) was 1.72 mg/kg and the RD500 (Rattus norvegicus [10]) was 0.18 ug rat-1. It also gave an ED20 (Canis familiaris [6]) of 1.05 mg/kg.
For `Oc1ccc(C2CNCCc3c2cc(O)c(O)c3C(F)(F)F)cc1` (stereo unspecified), the RD500 (Rattus norvegicus [3]) was “inactive”.
`Br.Oc1cc2c(c(F)c1O)CCNCC2c1ccccc1` (stereo unspecified) gave an ED30 (Canis familiaris [1]) of 54 mg/kg, an inhibition (Rattus norvegicus [21]) of 31% and an EC50 (Rattus norvegicus [7]) of 0.04 µM. For the same compound, the ED15 (Canis familiaris [2]) was 0.009 mg/kg, the Decrease (Canis familiaris [4]) was 36% and the inhibition (Rattus norvegicus [17]) was 17%. The ED20 (Canis familiaris [22]) was 54 mg/kg and the ED20 (Canis familiaris [9]) was 54 mg/kg.
